Experiments:
human C3a receptor = molecular target: T1, human C3a receptor (Homo sapiens, UniProt Q16581); test: Ca2+-flux assay in HEK293 cells expressing human C3a receptor and GNA16; assay type: cell-based; details: ligands mouse TLQP-21 1 μM or human C3a recombinant protein 300 nM, Fluo-4, HEK293, FIG. 1
T1 construct: host or cells: HEK293
T1 sequence (Q16581 1-482): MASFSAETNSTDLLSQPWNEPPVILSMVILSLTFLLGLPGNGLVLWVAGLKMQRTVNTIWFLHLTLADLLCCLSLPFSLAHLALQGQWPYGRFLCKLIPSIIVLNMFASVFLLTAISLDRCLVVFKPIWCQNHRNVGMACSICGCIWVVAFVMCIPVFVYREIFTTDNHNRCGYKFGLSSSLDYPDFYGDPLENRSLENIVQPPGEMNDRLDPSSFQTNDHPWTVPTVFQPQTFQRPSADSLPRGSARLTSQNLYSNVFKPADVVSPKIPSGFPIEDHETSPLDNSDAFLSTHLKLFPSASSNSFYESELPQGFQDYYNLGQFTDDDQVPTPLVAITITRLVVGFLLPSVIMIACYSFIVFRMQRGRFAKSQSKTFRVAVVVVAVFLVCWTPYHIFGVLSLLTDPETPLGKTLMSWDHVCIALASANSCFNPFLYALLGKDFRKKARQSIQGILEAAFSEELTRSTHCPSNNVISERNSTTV
Source text: Mouse TLQP-21 (Tocris Bioscience, sequence: TLOPPASSRRRHFHHALPPAR, the same applies hereinafter) and human C3a recombinant protein (R&D systems) were used. The solvent was HBSS (Gibco).
The compound 1 (L-arginine, N2-[[5-(diphenylmethyl)-2-thienyl]carbonyl]) synthesized in accordance with a previous report (Rowley, J. A. et al. Journal of Medicinal Chemistry, 2020; 63 (2): 529-541) and ozanimod (Cayman Chemical) were used as C3a receptor antagonists. In the following evaluation, the compound 1 and ozanimod were dissolved in DMSO and diluted with HBSS as appropriate.
Human Embryonic Kidney cells 293 (HEK293) were used, into which the expression vectors necessary for evaluation were introduced according to the following. […]
The cells for evaluating C3a receptor response described above were seeded in a BioCoat (Registered Trademark) Poly-D-Lysine 96-well Black Flat Bottom Microplate (CORNING). […] After 15 minutes, C3a receptor ligand solution (mouse TLQP-21 solution or human C3a recombinant protein solution) was added for C3a receptor stimulation, and the Ca^2+ influx associated with the stimulation was measured over time as intracellular fluorescence intensity (Ex: 480 nm, Em: 540 nm). The value obtained by subtracting the measured value when HBSS was added instead of the C3a receptor ligand solution (blank) was used as the measured value. […]

AD model mice (NC/Nga) [1] = test: Amelioration of pruritus in AD model mice by C3a receptor antagonist (mite allergen ointment-induced); assay type: in vivo, mouse; details: 0.5 mg/mL, 200 μL subcutaneously, three times a week; measured for 3 hours after last administration; FIG. 7
Experimental: Seven-week-old female NC/Nga mice were used. Preparation of AD model mice: The back of the neck was shaved, and 100 mg of an ointment containing mite allergen: Biostir AD (Biostir Inc.) was applied to the back of the neck and auricular region under isoflurane anesthesia for initial sensitization. Four days after the first application of the ointment containing mite allergen, 150 μL of 4% (w/v) SDS solution and 100 mg of ointment containing mite allergen were applied to the back of the neck and auricular region under isoflurane anesthesia. Thereafter, the same procedure was performed four times at a frequency of once every 3 to 4 days to induce AD-like dermatitis.
The compound 1, whose C3a receptor antagonism was confirmed in Example 1 above, was used as a C3a receptor antagonist. The compound 1 was dissolved in saline containing 20% polyethylene glycol 400, of which 200 μL was administered subcutaneously to the back of the neck. The control group was administered the same amount of only the above solvent. The concentration of the C3a receptor antagonist solution was set at 0.5 mg/mL. […]
Four days after the last application of the ointment containing mite allergen, the scratching behavior was measured for 3 hours after the last administration of the sample. […]

[2] = test system: AEW model mice (C57BL/6J); test: Amelioration of pruritus in AEW model mice by C3a receptor antagonist; assay type: in vivo, mouse; details: 0.5 mg/mL, 200 μL subcutaneously, once daily for 8 days; measured for 3 hours after last administration; FIG. 8
Source text: The animals used were male C57BL/6J mice. Preparation of AEW model: The back of the neck was shaved, and absorbent cotton soaked with a 1:1 (v/v) mixture of acetone and diethyl ether was applied and allowed to stand for 15 seconds. Immediately thereafter, absorbent cotton soaked with water was applied for 30 seconds. This treatment was repeated twice/day (morning and evening) for 7 days.
The compound 1, whose C3a receptor antagonism was confirmed in Example 1 above, was used as a C3a receptor antagonist. The compound 1 was dissolved in saline containing 20% polyethylene glycol 400, of which 200 μL was administered subcutaneously to the back of the neck. The control group was administered the same amount of only the above solvent. The concentration of the C3a receptor antagonist solution was set at 0.5 mg/mL. Sample administration started after the first AEW treatment and was performed at a frequency of once daily for 8 days.
Sixteen hours after the last AEW treatment, the scratching behavior was measured for 3 hours after the last administration of the sample. MicroAct (Neuroscience) was used to measure the scratching behavior.

[3] = test system: ANIT model mice (C57BL/6J); test: Amelioration of pruritus in model mice of pruritus associated with cholestasis (ANIT model) by ozanimod; assay type: in vivo, mouse; details: oral, 3 mg/mL suspension at 10 mL/kg; measurement time 22 hours; FIG. 10
Experimental: Shaved male C57BL/6J mice were used. To eight-week-old C57BL/6J mice, α-naphthyl isothiocyanate (ANIT) dissolved in olive oil (FUJIFILM Wako Pure Chemical) was orally administered once daily for 10 days with an oral gavage needle for mice and a disposable syringe. Before administration, body weight was measured to ensure administration at 25 mg/10 mL/kg (ANIT model).
(§1) Ozanimod (Selleck Biotech) was used. Carboxymethyl cellulose (Maruishi Pharmaceutical Co., Ltd.) prepared at 0.5% with water for injection was used as a solvent. The weighed ozanimod was lightly crushed using an agate pestle, and then the solvent dropwise addition and mixing were repeated to obtain a suspension (3 mg/mL). The preparation was done on the day of administration and stored at room temperature until administration.
The dosage (10 mL/kg) was calculated by measuring body weight, and the prepared evaluation samples were administered orally with an oral gavage needle for mice and a disposable syringe.
(§2) MicroAct (Neuroscience) was used to measure the scratching behavior. […] Measurements were made on the day before (before administration) and on the day of administration (after administration) of ozanimod, and the antipruritic effect of ozanimod was evaluated by comparing the number of scratching behaviors before and after administration.

AD model mice (NC/Nga) [4] = test: Amelioration of pruritus in AD model mice by ozanimod (fur mite-parasitized NC/Nga); assay type: in vivo, mouse; details: oral, 3 mg/mL suspension at 10 ml/kg; measurement time 22 hours; FIG. 9
Experimental: NC/Nga mice were parasitized with mouse fur mites (M. musculi) to spontaneously generate dermatitis, and were used as an AD model. Fourteen-week-old males having developed dermatitis were used. After one week of acclimation, the back of their necks was shaved and their scratching behavior was measured. The mice were divided into two groups of eight mice each to ensure an equal number of scratching behaviors.
as §1
The dosage (10 ml/kg) was calculated by measuring body weight, and the prepared evaluation samples were administered orally with an oral gavage needle for mice and a disposable syringe.
as §2

| fluorescence intensity due to C3a receptor stimulation by C3a receptor ligands (integrated value vs control = 100%) (human C3a receptor; compound at 1 μM) | fluorescence intensity due to C3a receptor stimulation by C3a receptor ligands (integrated value vs control = 100%) (human C3a receptor; compound at 10 μM) | SMILES | scratching behavior compared to AD model mice administered with solvent alone (AD model mice (NC/Nga) [1]) | scratching behavior compared to AEW model mice administered with solvent alone [2] | scratching behavior (events) after vs before administration [3] | scratching behavior (events) after vs before administration (AD model mice (NC/Nga) [4]) |
| --- | --- | --- | --- | --- | --- | --- |
| suppressed | – | N=C(N)NCCC[C@H](NC(=O)c1ccc(C(c2ccccc2)c2ccccc2)s1)C(=O)O [compound 1, L-arginine, N2-[[5-(diphenylmethyl)-2-thienyl]carbonyl]] | significant decrease | significant decrease | – | – |
| – | suppressed | CC(C)Oc1ccc(-c2nc(-c3cccc4c3CCC4NCCO)no2)cc1C#N (stereo not drawn) [ozanimod, 5-[3-[1-(2-hydroxyethylamino)-2,3-dihydro-1H-inden-4-yl]-1,2,4-oxadiazol-5-yl]-2-isopropoxybenzonitrile] | – | – | significant decrease | significant decrease |
